One may read the melting point as the temperature of the solid-liquid transition.

`COc1ccc2c(c1)c(CC(=O)Oc1ccc(CN3CCN(CC(C)(C)SN=O)CC3)cc1)c(C)n2C(=O)c1ccc(Cl)cc1`: the melting point fell in the range of 90 to 92 °C. As to `C[C@H]([C@H](O)c1ccc(O)c(O)c1)N1CCC(O)(c2ccccc2)CC1` (relative stereo), the melting point lay within 167 to 168 °C. Compound `CCOC(=O)c1cc(CC)sc1Nc1ccc(Cl)cc1N` registered a melting point of 119 to 121 °C. `CN(C)CCCC1CCCCN1C(=O)N1c2ccccc2C(=O)Nc2cccnc21` (stereo not given) displayed a melting point of 142 to 144 °C. In the case of `CCNc1cccnc1N1CCN(C(=O)c2ccc(C(=O)OC)cn2)CC1` it was 80 to 81 °C.

`O=C(C=Cc1ccc(CNCC2CCCC2)cc1)Nc1ccc(-c2ccc(Cl)cc2)cc1` yielded a melting point of 209 to 210 °C. The compound `CNC(=O)N1N=C(c2ccc(N)cc2)c2cc3c(cc2CC1CO)OCO3` (stereo not given) registered a melting point of 136 to 138 °C.

The compound `CCCCCCCCOc1ccc(C(=O)c2ccccc2)c(O)c1Cc1cc(C)cc(-n2nc3ccccc3n2)c1O` had a melting point of 124 to 126 °C.

Regarding `COC(=O)CCC(=O)c1ccc(CCNC(C)=O)cc1`, the melting point is 120 °C. Take `Cc1csc2c1cc(C(=O)c1ccccc1)n2CC(=O)O`: the melting point turned out to be 197 °C. In the case of `c1ccc(C2Cn3c(nc4cc5ccccc5cc43)S2)nc1` (stereo not given) it was 198 °C; in that of `CCCN(Cc1ccc(-c2ccccc2-c2nnn[nH]2)cc1)c1ncccc1C(=O)O`, 202 to 204 °C. On to `CC(C)(Oc1ccc(CCC(=O)c2ccc(-c3ccc(C(F)(F)F)cc3)o2)c(Cl)c1Cl)C(=O)O`, for which the melting point was determined as 85 °C. The figure for `COc1ccc(N2CCN(n3ccnc3SC)CC2)cc1` is 140 °C; for `NC(=NC(=O)c1nc(Cl)c(N)nc1N)NCCCCCCCCCCCC(=O)O` it is 194 to 196 °C; for `CC(C)(C)OC(=O)NC(Cc1ccccc1)C(=O)NC(Cc1ccccc1)C(=O)NCCc1c[nH]cn1` (stereo not given) it is 175 to 177 °C.

Regarding `CN(C)S(=O)(=O)CCc1ccc2[nH]cc(CC#N)c2c1`, the melting point was 105 to 107 °C.

As to `N=C(OCc1ccc(Cl)cc1)N1Cc2ccccc2-c2ccccc2C1`, the melting point fell in the range of 103 to 105 °C. With `O=[N+]([O-])c1cn2c(n1)O[C@@H](CN1CCN(Cc3ccc(-c4ccccc4)cc3)CC1)C2`, the melting point lay in the range of 207 to 208 °C. Compound `CC(C)(C)c1cc(I)c(O)c(CNC(=O)C(F)(F)F)c1` gave a melting point of 118 to 119 °C. In turn, `CCCC(O)C(C)C(=O)n1c(=O)oc2ccccc21` (stereo not given) came in with a melting point of 123 to 124 °C. The figure for `Cc1cc(=O)n(C)c(=O)n1C` is 113 to 114 °C. For the compound `Cc1ccc(-n2c(N)nc3ccccc32)cc1-c1ccco1`, the melting point is 155 to 157 °C. On to `O=C(NCCSc1cccc2nccn12)c1ccccc1O`, for which the melting point fell in the range of 156 to 157 °C. Turning to `CNS(=O)(=O)c1c[nH]c(-c2ccc(Cl)cc2)n1`, the melting point lay within 246 to 248 °C. In the case of `CCOC(=O)Cc1cc2ccc(Br)cc2[nH]1` it was 67 to 69 °C. As to `CCCCNC(=O)[C@@H](C[C@H](O)[C@H](CC1CCCCC1)NC(=O)[C@H](Cc1cscn1)NC(=O)OC(C)(C)C)C(C)C`, the melting point is 201 to 203 °C.

`Cc1nn(-c2ccc(F)cc2)cc1C(=O)Nc1ccc(OCC(C)(C)C)c(C#N)c1` gave a melting point of 181 to 182 °C. On to `CC(=O)Nc1ccc(OC(C)=O)c(C)c1C`, for which the melting point fell in the range of 155 to 156 °C. `O=C1CCC(N2C(=O)c3cccc(OCc4nc(CN5CCOCC5)cs4)c3C2=O)C(=O)N1` (stereo not given) registered a melting point of 210 to 212 °C. The figure for `Clc1ccc(-c2nc(-n3cncn3)oc2CCC2=NCCO2)cc1` is 132 to 133 °C; for `O=C(NCCO)c1cccc(-c2cccc3nn(Cc4ccccc4F)cc23)c1` it is 159 to 160 °C; for `OC(Cc1ccccc1)c1ccccc1Br` (stereo not given) it is 84 to 85 °C. Turning to `O=C(O)Cc1cccc2c(-c3ccc(Cl)cc3)nccc12`, the melting point lay within 234 to 236 °C. The compound `CC1(C)C=C(c2ccccn2)c2cc(C#N)ccc2O1` had a melting point of 106 to 108 °C.

For `COC(=O)C1CCCn2c(=O)n(CC(=O)OCc3ccccc3)c(=O)n21` (stereo not given), the melting point lay in the range of 103 to 106 °C. `CCCc1nc(NC)n2ncc(C(=O)c3ccccc3Cl)c2n1` had a melting point of 116 to 118 °C. In the case of `COc1cc(S(C)=O)c(C)cc1OCC(C)=O` (stereo not given) it was 104 to 106 °C; in that of `CC(=O)C(Cl)=NNc1ccccc1S(C)(=O)=O`, 253 to 255 °C.

`OC(COc1cccnc1)c1cccc(OCc2ccc3ccccc3n2)c1` (stereo not given): the melting point fell in the range of 103 to 104 °C. `Cn1c(CO)c(-c2ccc(F)cc2)c2ccccc21` yielded a melting point of 99 to 104 °C. The compound `COC(=O)c1ccc(CC#N)cc1S(=O)(=O)NC(C)(C)C` had a melting point of 86 to 88 °C.

With `CC12CCC3c4ccc(C(=O)O)cc4CCC3C1CCC2C(=O)C1CCCCC1` (stereo not given), the melting point lay in the range of 280 to 285 °C. `COc1cccc2c1CCC(CN1C(=O)c3ccccc3C1=O)C2` (stereo not given) came in with a melting point of 143 to 144 °C. In the case of `CC(C)COc1ccccc1-c1ncc(-c2nnn[nH]2)c(=O)[nH]1`, the melting point was 230 to 231 °C. For the compound `O=C1Cc2c(OCCN3CCc4ccccc4C3)ccc(F)c2N1`, the melting point fell in the range of 230 to 235 °C. Regarding `O=C(O)CNC(=O)NC(CSC(=O)Nc1ccccc1)Cc1ccccc1` (stereo not given), the melting point lay within 179 to 181 °C. In the case of `CNC(=S)C1=CC(CF)(CF)Oc2ccc([N+](=O)[O-])cc21` it was 134 to 135 °C; in that of `c1ccc(N2CCN(CCCCc3cccnc3)CC2)nc1`, 54 to 64 °C; in that of `CCCc1c(OCCCCOc2ccc(C(=O)c3cccc(C(=O)O)c3)cc2CCC(=O)O)ccc2c1OCCC2=O`, 177 to 180 °C.

`CN(C)C(=S)SC(C[N+](=O)[O-])c1ccc(Cl)s1` (stereo not given) returned a melting point of 76 to 77 °C. The compound `CCOC(=O)c1cnc2ccc(CC)nc2c1O` registered a melting point of 262 to 264 °C. As for `O=C1Nc2cccnc2N(C(=O)CCC#CCN2CCCCC2)c2ccccc21`, the melting point was determined as 197 °C. In the case of `C=CCCCSC1NN=C(c2ccncc2)N1c1ccccc1` (stereo not given) it was 132 to 133 °C; in that of `Oc1ncc(-c2cccc(C(F)(F)F)c2)cn1`, 283 to 285 °C.

For the compound `COc1cc(C(F)(F)F)cc(OC)c1-c1csc(NC(=O)c2cc3ccccc3[nH]2)n1`, the melting point was > 260 °C. For the compound `CNC(=O)c1ccc(-c2cccc3nc(Nc4cc(OC)c(OC)c(OC)c4)oc23)cc1`, the melting point lay within 258 to 259 °C. With `N#CCCOC(=O)NC(=O)C(c1ccccc1)c1ccccc1`, the melting point is 113 °C. In turn, `Cc1ccc(Cc2cnc(NCCSCc3cc(CN(C)C)ccn3)[nH]c2=O)cn1` came in with a melting point of 128 to 130 °C. In turn, `CC(O)c1ccc(NS(C)(=O)=O)c(Sc2ccc(F)cc2F)c1` (stereo not given) yielded a melting point of 118 to 120 °C. `O=C1CCN(c2ccccc2)C(=O)C1=C1SC=CS1` registered a melting point of 150 to 152 °C. For `C=CC(=O)NCC(=O)Nc1cc(Cl)c(C)c(Cl)c1O`, the melting point lay within 225 to 227 °C. Compound `C=CCC(C#N)(C#N)C(C)(C)c1cccc(Cl)c1` displayed a melting point of 84.3 °C. Regarding `Cc1nc(CN2C(=O)C3(COc4cc5c(cc43)OCO5)c3ccccc32)c(C(F)(F)F)o1` (stereo not given), the melting point is 136 to 137 °C. With `Cc1cc(Cn2cnc3c2CC(C(=O)O)N(C(=O)C(c2ccccc2)c2ccccc2)C3)ccc1N(C)C` (stereo not given), the melting point was in the range of 72 to 75 °C. Regarding `CC(=O)c1ccc2oc3ncccc3c(=O)c2c1`, the melting point was 195 to 196 °C. `O=Cc1c2ccccc2c(OCCOCc2ccccc2)c2ccccc12` showed a melting point of 68 to 69 °C.

Consider `CCOC(=O)NC(=O)C(Cl)C(C)=O` (stereo not given), for which the melting point fell in the range of 69.5 to 70 °C. The figure for `COC(=O)c1cc(C(=O)c2cccc(Cl)c2)cn1C` is 126 °C; for `O=c1[nH]c2ccccc2n1CCCN1CCNCC1` it is 158 °C. In the case of `Clc1ccccc1-c1c(I)nc2ncnn2c1NC1CCCC1` it was 150 °C; in that of `CCOc1cc(OCC)c2ccccc2c1O`, 83 to 84 °C; in that of `O=C(CC1COC1)N[C@H]1CC[C@H](CCN2CCC(c3cccc4c3CCO4)CC2)CC1`, 197 °C. In the case of `CCc1nc(SC)c(C(=O)O)n1Cc1ccc(-c2ccccc2S(=O)(=O)NC(=O)NCc2ccccc2)cc1` it was 164 °C; in that of `CCCCn1cc(C(=O)C(=O)O)c2cc(-c3ccc(OC)cc3)ccc21`, 172 to 173 °C; in that of `O=C(O)COc1c(F)ccc(-c2c3ccccc3c(Br)c3sc4ccccc4c23)c1F`, 195 to 197 °C. `NC(=S)NN=C(CCCOC(=O)NCc1ccccc1)c1ccccc1` returned a melting point of 137 to 140 °C. The figure for `CC1(C)c2ccccc2N2Cc3cc([N+](=O)[O-])ccc3OC21C` (stereo not given) is 180 °C; for `COCCOCCn1cc(C(=O)NCc2ccc(Cl)cc2)c(=O)c2cc(CN(C)[C@H](C)[C@@H](O)c3ccccc3)ccc21` it is 106 to 109 °C; for `CCCCC(C(=O)O)n1cncn1` (stereo not given) it is 141 to 143 °C. `CCOC(=O)C1Cc2ccc(Cl)cc2NC1=O` (stereo not given): the melting point lay in the range of 182 to 184 °C. In the case of `CC#CC(C)(C)NC(=O)C(CC)Oc1cc(C#N)cc(OC)c1` (stereo not given) it was 97 to 98 °C. For `CCOC(=O)c1ccc(N2Cc3ccccc3C2=O)cc1`, the melting point was in the range of 182 to 184 °C. The figure for `Cc1nnc2n1-c1ccc(Br)cc1C(c1ccccn1)=NC2` is 248 to 250 °C; for `N#CN=C(Cc1ccccc1F)NC1CCc2ccccc21` (stereo not given) it is 141 to 142 °C. In the case of `COc1cc2c(cc1[N+](=O)[O-])-c1c(-c3cccs3)c3c(n1CC2)C(=O)N(C(C)(C)C)CC3`, the melting point lay in the range of 226 to 227 °C. For the compound `CC1(C)Oc2ccc(C#N)cc2C(OC2=CC(=O)CC2)C1(C)O` (stereo not given), the melting point is 204 to 206 °C. The figure for `O=C1c2c(Cl)cccc2S(=O)(=O)N1CCl` is 135 to 136 °C. In the case of `Cn1c(CCNC2CCN(Cc3ccccc3)CC2)cc2ccccc21`, the melting point is 72 to 73 °C. `NNc1c(F)cc(Cl)c2nc(Cl)sc12` gave a melting point of 162 to 180 °C.

The record behind these values is a melting point compilation (Tetko et al.; mined from patent text by program, amines drawn as free bases though some values may be those of a salt).
